In ChEMBL document CHEMBL5113512, “β-Nitrostyrene derivatives as broad range potential antifungal agents targeting fungal cell wall” (2022):
Activity calls are given as the source filed them.

Tests used:
[1] = test system: Candida; assay: Downregulation of CDC42 gene expression in Candida cells; type: functional, cell-based
[2] = test system: Candida; assay: Downregulation of CDC15 gene expression in Candida cells; type: functional, cell-based
[3] = test system: Candida; assay: Downregulation of CDC4 gene expression in Candida cells; type: functional, cell-based
[4] = test system: Candida albicans; assay: Antifungal activity against wild type Candida albicans SN152 assessed as inhibition of fungal growth by broth microdilution method; type: functional
[5] = test system: Candida albicans; assay: Antifungal activity against Candida albicans SN152 harboring CAS5 mutant assessed as inhibition of fungal growth by broth microdilution method; type: functional
[6] = test system: Candida; assay: Downregulation of GUT1 gene expression in Candida cells; type: functional, cell-based
[7] = test system: Candida; assay: Downregulation of STT4 gene expression in Candida cells; type: functional, cell-based
[8] = test system: Candida albicans; assay: Antifungal activity against Candida albicans ATCC 24433 assessed as inhibition of fungal growth by broth microdilution method; type: functional
[9] = test system: Candida parapsilosis; assay: Antifungal activity against Candida parapsilosis ATCC 90018 assessed as inhibition of fungal growth by broth microdilution method; type: functional; details: Lodderomyces parapsilosis
[10] = test system: Nakaseomyces glabratus; assay: Antifungal activity against Candida glabrata ATCC 2001 assessed as inhibition of fungal growth by broth microdilution method; type: functional
[11] = test system: Candida tropicalis; assay: Antifungal activity against Candida tropicalis ATCC 750 assessed as inhibition of fungal growth by broth microdilution method; type: functional
[12] = test system: [Candida] auris; assay: Antifungal activity against Candida auris 102 assessed as inhibition of fungal growth by broth microdilution method; type: functional; details: Candidozyma auris
[13] = test system: [Candida] auris; assay: Antifungal activity against Candida auris 105 assessed as inhibition of fungal growth by broth microdilution method; type: functional; details: Candidozyma auris
[14] = test system: [Candida] auris; assay: Antifungal activity against Candida auris 118 assessed as inhibition of fungal growth by broth microdilution method; type: functional; details: Candidozyma auris
[15] = test system: [Candida] auris; assay: Antifungal activity against wild type Candida auris 102 assessed as inhibition of fungal growth by broth microdilution method; type: functional; details: Candidozyma auris
[16] = test system: Candida albicans; assay: Antifungal activity against Candida albicans ATCC 24433 overexpressing transporter protein GU4 assessed as inhibition of fungal growth by broth microdilution method; type: functional
[17] = test system: Candida albicans; assay: Antifungal activity against Candida albicans ATCC 24433 overexpressing transporter protein GU5 assessed as inhibition of fungal growth by broth microdilution method; type: functional
[18] = test system: Candida albicans; assay: Antifungal activity against Candida albicans ATCC 24433 overexpressing transporter protein F2 assessed as inhibition of fungal growth by broth microdilution method; type: functional
[19] = test system: Candida albicans; assay: Antifungal activity against Candida albicans ATCC 24433 overexpressing transporter protein F5 assessed as inhibition of fungal growth by broth microdilution method; type: functional
[20] = test system: Candida albicans; assay: Antifungal activity against Candida albicans ATCC 24433 overexpressing ADCDR1-GFP assessed as inhibition of fungal growth by broth microdilution method; type: functional
[21] = test system: Candida albicans; assay: Antifungal activity against Candida albicans ATCC 24433 overexpressing ADCaMDR1-GFP assessed as inhibition of fungal growth by broth microdilution method; type: functional
[22] = test system: Candida albicans; assay: Antifungal activity against Candida albicans ATCC 24433 overexpressing ADPDR5-GFP assessed as inhibition of fungal growth by broth microdilution method; type: functional
[23] = test system: Candida albicans; assay: Antifungal activity against Candida albicans ATCC 24433 overexpressing AD(1-8)u-assessed as inhibition of fungal growth by broth microdilution method; type: functional
[24] = test system: Candida albicans; assay: Synergistic antifungal activity against Candida albicans ATCC 24433 overexpressing ADCDR1-GFP assessed as fractional inhibitory concentration index incubated for 48 hrs in presence of caspofungin by checker board assay; type: functional
[25] = test system: Candida albicans; assay: Synergistic antifungal activity against Candida albicans ATCC 24433 overexpressing ADCaMDR1-GFP assessed as fractional inhibitory concentration index incubated for 48 hrs in presence of caspofungin by checker board assay; type: functional
[26] = test system: Candida albicans; assay: Synergistic antifungal activity against Candida albicans ATCC 24433 overexpressing ADPDR5-G assessed as fractional inhibitory concentration index incubated for 48 hrs in presence of caspofungin by checker board assay; type: functional

CC[C@H](C)C[C@H](C)CCCCCCCCC(=O)N[C@H]1C[C@@H](O)[C@@H](NCCN)NC(=O)[C@@H]2[C@@H](O)CCN2C(=O)[C@H]([C@H](O)CCN)NC(=O)[C@H]([C@H](O)[C@@H](O)c2ccc(O)cc2)NC(=O)[C@@H]2C[C@@H](O)CN2C(=O)[C@H]([C@@H](C)O)NC1=O [CASPOFUNGIN]
active: Activity [1] | Activity [2] | Activity [3] | Activity [6] | Activity [7]
0.125 mg/L: MIC80 [4]
0.0156 mg/L: MIC80 [5]

CC/C(=C\c1ccc(OC)c(OC)c1)[N+](=O)[O-]
<0.5: fractional inhibitory concentration index (FICI) [24] | fractional inhibitory concentration index (FICI) [25] | fractional inhibitory concentration index (FICI) [26]
16 mg/L: MIC80 [8] | MIC80 [11] | MIC80 [16] | MIC80 [23]
8 mg/L: MIC80 [12] | MIC80 [13] | MIC80 [14] | MIC80 [15] | MIC80 [17] | MIC80 [18] | MIC80 [19] | MIC80 [21] | MIC80 [22]
32 mg/L: MIC80 [9] | MIC80 [10] | MIC80 [20]

O=[N+]([O-])/C=C/c1cccc(O)c1
4 mg/L: MIC80 [21] | MIC80 [22]
> 32 mg/L: MIC80 [11]
32 mg/L: MIC80 [16]
<0.5: fractional inhibitory concentration index (FICI) [24] | fractional inhibitory concentration index (FICI) [25] | fractional inhibitory concentration index (FICI) [26]
8 mg/L: MIC80 [12] | MIC80 [13] | MIC80 [14] | MIC80 [15] | MIC80 [5] | MIC80 [19]
16 mg/L: MIC80 [8] | MIC80 [9] | MIC80 [10] | MIC80 [4] | MIC80 [17] | MIC80 [18] | MIC80 [20] | MIC80 [23]

C/C(=C\c1ccc(N(C)C)cc1)[N+](=O)[O-]
16 mg/L: MIC80 [8] | MIC80 [11] | MIC80 [16] | MIC80 [17] | MIC80 [18] | MIC80 [19] | MIC80 [22] | MIC80 [23]
32 mg/L: MIC80 [9] | MIC80 [10] | MIC80 [20]
8 mg/L: MIC80 [12] | MIC80 [13] | MIC80 [14] | MIC80 [15] | MIC80 [21]

Nc1c(/N=N/c2ccc(-c3ccc(/N=N/c4cc(S(=O)(=O)[O-])c5ccccc5c4N)cc3)cc2)cc(S(=O)(=O)[O-])c2ccccc12.[Na+].[Na+] [CONGO RED]
0.781 mg/L: MIC80 [5]
100 mg/L: MIC80 [4]
